pIC50: −log10 of the molar value.

In ChEMBL document CHEMBL4834431, “Design of Dimeric Bile Acid Derivatives as Potent and Selective Human NTCP Inhibitors” (J Med Chem, 2021) one finds IC50, half-life and microsomal CLint data, which are given here for three molecules.

The test system of data set [1] is Hepatitis B virus. The data set can be described thus: Antiviral activity against HBV infected in human HepG2-NTCP cells assessed as reduction in HBeAg secretion incubated for 24 hrs followed replacement with fresh medium and measured at day 5 post infection by ELISA. The data set is classed as functional, organism-based.
The nature of data set [2]: Stability in mouse liver microsomes assessed as half life at 1 uM preincubated for 5 mins followed by NADPH addition and measured upto 60 mins by LC-MS analysis. It counts as ADME, Microsome. The conditions noted are these: time 65 min.
The nature of data set [3]: Stability in mouse liver microsomes assessed as intrinsic clearance at 1 uM preincubated for 5 mins followed by NADPH addition and measured upto 60 mins by LC-MS analysis. The conditions noted are these: time 65 min, read-out: CLH. The data set is classed as ADME, Microsome.
Data set [4] addresses T1, Hepatic sodium/bile acid cotransporter (Homo sapiens, UniProt Q14973).
T1 sequence (Q14973 whole entry): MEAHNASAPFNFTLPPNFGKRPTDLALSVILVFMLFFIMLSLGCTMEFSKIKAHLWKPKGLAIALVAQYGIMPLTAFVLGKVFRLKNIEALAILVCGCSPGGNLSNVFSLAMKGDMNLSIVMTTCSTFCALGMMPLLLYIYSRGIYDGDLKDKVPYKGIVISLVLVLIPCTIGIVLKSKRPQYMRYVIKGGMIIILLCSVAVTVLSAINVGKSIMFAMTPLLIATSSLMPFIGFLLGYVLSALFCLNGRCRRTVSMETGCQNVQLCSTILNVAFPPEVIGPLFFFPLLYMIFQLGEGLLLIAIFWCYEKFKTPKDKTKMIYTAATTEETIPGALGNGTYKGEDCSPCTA
The data set can be described thus: Inhibition of human NTCP-mediated [3H]-TCA uptake expressed in human HepG2 cells in presence of 20 % FBS. The data set is classed as cell-based.

Data set [5] concerns the target T1, Hepatic sodium/bile acid cotransporter. Put plainly: Inhibition of human NTCP-mediated [3H]-TCA uptake expressed in human HepG2 cells in presence of 50 % FBS. The data set is classed as cell-based.
Data set [6] has the same target. Put plainly: Inhibition of human NTCP-mediated [3H]-TCA uptake expressed in human HepG2 cells pretreated for 2 hrs followed by [3H]-TCA addition in absence of FBS. The data set is classed as cell-based.

For `C[C@H](CCc1cn([C@@H]2CC[C@@]3(C)[C@@H](C2)C[C@H](O)[C@@H]2[C@@H]3CC[C@]3(C)[C@@H]([C@H](C)CCC(=O)NCCS(=O)(=O)O)CC[C@@H]23)nn1)[C@H]1CC[C@H]2[C@@H]3[C@@H](O)C[C@@H]4C[C@H](O)CC[C@]4(C)[C@H]3CC[C@]12C`, the pIC50 in data set [1] is 7.62; in data set [4], less than 5.00; in data set [5], less than 5.00; in data set [6], 7.61. Further, the half-life at 1 µM in data set [2] worked out at 12.6 min. Also, the microsomal CLint at 1 µM in data set [3] turned out to be 55.2 µL/min/mg.
Regarding `C[C@@H]1CCC(=O)NC(C(=O)O)CNC(=O)CC[C@@H](C)[C@H]2CC[C@H]3[C@@H]4[C@@H](O)C[C@@H]5C[C@@H](CC[C@]5(C)[C@H]4CC[C@]23C)n2cc(nn2)CO[C@@H]2CC[C@@]3(C)[C@@H](C2)C[C@H](O)[C@@H]2[C@@H]3CC[C@]3(C)[C@@H]1CC[C@@H]23` (some centres undefined), the pIC50 in data set [1] is 7.03; in data set [4], 6.96; in data set [5], 6.78; in data set [6], 7.75.
In the case of `C[C@H](CCC(=O)N[C@@H]1CC[C@@]2(C)[C@@H](C1)C[C@H](O)[C@@H]1[C@@H]2CC[C@]2(C)[C@@H]([C@H](C)CCC(=O)NCCS(=O)(=O)O)CC[C@@H]12)[C@H]1CC[C@H]2[C@@H]3[C@@H](O)C[C@@H]4C[C@H](O)CC[C@]4(C)[C@H]3CC[C@]12C`, the negative logarithm of the IC50 (pIC50) is 8.30 in data set [1] and 9.52 in data set [6]. In addition, the half-life at 1 µM in data set [2] came out at 0.7 min. Moreover, the microsomal CLint at 1 µM in data set [3] stood at 994 µL/min/mg.
